Results: US6497899B2, “Rapidly disintegrating and fast-dissolving solid dosage form” (Pfizer, Inc., priority 2000, dated 2002)

Test: Dissolution testing of medicated tablets, USP/NF method 711, apparatus 2 at 50 RPM, UV absorption
Format: physicochemical
Conditions: medicated steam extruded starch solid dosage form, apparatus 2, 50 RPM
Procedure: Dosage form dissolution is measured by the United States Pharmacopeia/National Formulary (USP/NF) method 711 (United States Pharmacopeia, Rockville, Md., USA) and is summarized below:
The assembly from Apparatus 1 is used except that a paddle formed from a blade and a shaft is used as the stirring element. The shaft is positioned so that its axis is not more than 2 mm at any point from the vertical axis of the vessel and rotates smoothly without significant wobble. The vertical center line of the blade passes through the axis of the shaft so that the bottom of the blade is flush with the bottom of the shaft. The distance of 25±2 mm between the blade and the inside bottom of the vessel is maintained during the test. The metallic or suitably inert, rigid blade and shaft comprise a single entity that may be coated with a suitable inert coating. The dosage unit is allowed to sink to the bottom of the vessel before rotation of the blade is started. A small, loose piece of nonreactive material such as not more than a few turns of wire helix may be attached to dosage units that would otherwise float. Other validated sinker devices may be used. […]
The stated volume of the dissolution medium (±1%) is placed in the vessel of the apparatus. The dissolution medium is equilibrated to 37±0.5°C., and the thermometer removed. One solid dosage form is placed in the apparatus, taking care to exclude air bubbles from the surface of the dosage-form unit and either apparatus is immediately operated at a rate of 50 rpm. The concentration of dissolved drug in dissolution medium is measured over time by ultraviolet spectrophotometer to calculate the dissolution rate.
The medicated tablets were dissolved according to USP/NF method 711 using apparatus 2 at 50 RPM. Levels of medicament released were determined by UV absorption.

[1] = dissolution media Simulated Intestinal Fluid without enzyme
[2] = dissolution media deionized H2O, 37 C

CC(C(=O)O)c1ccc2c(c1)[nH]c1ccc(Cl)cc12 (stereo not shown) [Carprofen]
1 minute release [1]: 33.4%
5 minute release [1]: 69.6%
10 minute release [1]: 82.8%
60 minute release [1]: 101.4%

Cl.Cl.O=C(O)COCCN1CCN(C(c2ccccc2)c2ccc(Cl)cc2)CC1 (stereo not shown) [Cetirizine.HCl]
1 minute release [2]: 65.5%
5 minute release [2]: 82.7%
60 minute release [2]: 100.1%

OC(Cn1cncn1)(Cn1cncn1)c1ccc(F)cc1F [Diflucan, Fluconazole]
1 minute release [2]: 60.3%
5 minute release [2]: 76.7%
60 minute release [2]: 97.6%
